Measurements as given in the NIST ThermoML archive (doi:10.1016/j.tca.2011.02.002).
Numbers after ± are expanded uncertainties.

Legend:
[1] = 101 kPa, Liquid; for mass density: Vibrating tube method
[2] = xn = mol fraction of the nth substance listed; conditions: 101 kPa, Liquid, x1 = 1; for mass density: Vibrating tube method

SMILES | speed of sound ([1]; 298.15 K) [m/s] | mass density ([1]; 298.15 K) [kg/m3] | speed of sound ([1]; 303.15 K) [m/s] | mass density ([1]; 303.15 K) [kg/m3] | speed of sound ([1]; 308.15 K) [m/s] | mass density ([1]; 308.15 K) [kg/m3] | mass density ([2]; 298.15 K) [kg/m3] | speed of sound ([2]; 298.15 K) [m/s] | mass density ([2]; 303.15 K) [kg/m3] | speed of sound ([2]; 303.15 K) [m/s] | mass density ([2]; 308.15 K) [kg/m3] | speed of sound ([2]; 308.15 K) [m/s]
Cc1ccccn1 [2-methylpyridine] | 1380.1 ± 2 | 939.802 ± 0.99 | 1361 ± 2 | 935.117 ± 0.98 | 1339.9 ± 2 | 930.414 ± 0.98 | – | – | – | – | – | –
Cc1cccnc1 [3-methylpyridine] | 1424 ± 2 | 952.002 ± 1 | 1404 ± 2 | 947.449 ± 1 | 1384 ± 2 | 942.831 ± 0.99 | – | – | – | – | – | –
Cc1ccncc1 [4-methylpyridine] | 1431.5 ± 1 | 950.179 ± 0.3 | 1410.7 ± 1 | 945.413 ± 0.3 | 1389.9 ± 1 | 940.821 ± 0.3 | – | – | – | – | – | –
c1ccncc1 [pyridine] | 1417.6 ± 1.1 | 978.249 ± 0.3 | 1397.4 ± 1.1 | 973.224 ± 0.3 | 1377.1 ± 1.1 | 968.166 ± 0.3 | – | – | – | – | – | –
C1CCOCC1 [tetrahydropyran] | 1269.9 ± 2 | 879.136 ± 0.91 | 1246.8 ± 2 | 873.992 ± 0.9 | 1224.5 ± 2 | 868.831 ± 0.89 | – | – | – | – | – | –
C1CCOCC1 [tetrahydropyran] + Cc1ccccn1 | – | – | – | – | – | – | 879.136 ± 0.91 | 1269.9 ± 2 | 873.992 ± 0.9 | 1246.8 ± 2 | 868.831 ± 0.89 | 1224.5 ± 2
C1CCOCC1 [tetrahydropyran] + Cc1cccnc1 | – | – | – | – | – | – | 879.136 ± 0.91 | 1269.9 ± 2 | 873.992 ± 0.9 | 1246.8 ± 2 | 868.831 ± 0.89 | 1224.5 ± 2
C1CCOCC1 [tetrahydropyran] + Cc1ccncc1 | – | – | – | – | – | – | 879.136 ± 0.91 | 1269.9 ± 2 | 873.992 ± 0.9 | 1246.8 ± 2 | 868.831 ± 0.89 | 1224.5 ± 2
C1CCOCC1 [tetrahydropyran] + c1ccncc1 | – | – | – | – | – | – | 879.136 ± 0.91 | 1269.9 ± 2 | 873.992 ± 0.9 | 1246.8 ± 2 | 868.831 ± 0.89 | 1224.5 ± 2
